Test results from patent publication US12357652B2, “Formulations of phosphoramidate derivatives of nucleoside drugs” (priority 2015, dated 2025).

Experiments:
[1] = cited from earlier work
[2] = Solubility of NUC-7738 in a range of solvents; assay type: physicochemical
[3] = NUC-7738 concentrate mixed with Tween 80 and added to saline, checked by eye for precipitation; assay and purity after 48 h; assay type: physicochemical
Experimental: 50 µL of a 100 mg/mL concentrate of NUC-7738 (mixture of diastereoisomers) in a range of solvents (DMA, DMSO, NMP, ethanol, benzyl alcohol) was mixed with 50 µL of Tween® 80 and added to 1.150 mL saline and the resultant solutions were checked by eye for precipitation of NUC-7738. Similarly a 50 µL concentrate of NUC-7738 (mixture of diastereoisomers) in Tween® 80 was mixed with 50 µL water for injection and then added to 1.150 mL saline.
(§1) Even a solubiliser is not effective, in the absence of a polar aprotic solvent, at retaining NUC-7738 in solution in aqueous conditions. The solutions prepared above were assayed for NUC-7738 content and purity on being formed and also after 48 h. […] In a further experiment, the […] concentration of NUC-7738 in solvents that could be diluted with saline without precipitation was determined. Solutions of NUC-7738 (mixture of diastereoisomers) at various concentrations in NMP, DMSO and DMA were prepared and 100 µL of the solutions were added to 2.40 mL saline.

[4] = NUC-7738 solutions in NMP, DMSO, DMA diluted with saline, observed for precipitation; assay type: physicochemical
Experimental: as §1

[5] = solutions of Table 8, after 48 h versus on being formed

**Q.** With `C[C@H](NP(=O)(OC[C@H]1O[C@@H](n2ccc(N)nc2=O)C(F)(F)[C@@H]1O)Oc1ccccc1)C(=O)OCc1ccccc1` (stereo partly drawn) [NUC-1031, 2′-deoxy-2′,2′-difluoro-D-cytidine-5′-O-[phenyl (benzoxy-L-alaninyl)] phosphate] as the compound, how does the “Stability (to precipitation and to degradation)” value ([1]; S-isomer alone or mixture of R and S epimers at 4, 8 and 10 mg/mL, 48 hours after dilution in 0.45% and 0.9% saline, pH 4.5, 6.0 and 7.0, not stirred) read?
**A.** The value was “stable”.

**Q.** What about the Osmolarity ([1]; all of the NUC-1031 solutions) of the same compound?
**A.** The Osmolarity was “acceptable for peripheral administration”.

**Q.** Which Solubility ([2]; 5% Tween in water) does the source give for `C[C@H](NP(=O)(OC[C@@H]1C[C@@H](O)[C@H](n2cnc3c(N)ncnc32)O1)Oc1ccccc1)C(=O)OCc1ccccc1` (stereo partly drawn) [NUC-7738, 3′-deoxyadenosine-5′-O-[phenyl(benzyloxy-L-alaninyl)] phosphate] here?
**A.** Its Solubility is less than 11.8 mg/mL.

**Q.** What about the Solubility ([2]; DMA) of the same compound?
**A.** Its Solubility is greater than 667 mg/mL.

**Q.** What about the Solubility ([2]; DMSO) of the same compound?
**A.** The Solubility was greater than 667 mg/mL.

**Q.** What about the Solubility ([2]; Ethanol) of the same compound?
**A.** The Solubility was greater than 667 mg/mL.

**Q.** What about the Solubility ([2]; Heptane) of the same compound?
**A.** Its Solubility is less than 12 mg/mL.

**Q.** What about the Solubility ([2]; NMP) of the same compound?
**A.** Its Solubility is greater than 667 mg/mL.

**Q.** What about the Solubility ([2]; Propylene Glycol) of the same compound?
**A.** Its Solubility is greater than 667 mg/mL.

**Q.** And the Solubility ([2]; isopropylacetate)?
**A.** Its Solubility is less than 9 mg/mL.

**Q.** And the Solubility ([2]; tbutylmethylether)?
**A.** The Solubility was less than 11 mg/mL.

**Q.** And the Appearance ([3]; 100 mg/mL concentrate in BnOH 50 + TW80 50 + Saline 1150)?
**A.** The Appearance was “White precipitate, milky solution”.

**Q.** And the Appearance ([3]; 100 mg/mL concentrate in DMA 50 + TW80 50 + Saline 1150)?
**A.** Its Appearance is “Clear and limpid solution”.

**Q.** What about the Appearance ([3]; 100 mg/mL concentrate in DMSO 50 + TW80 50 + Saline 1150) of the same compound?
**A.** Its Appearance is “Clear and limpid solution”.

**Q.** What about the Appearance ([3]; 100 mg/mL concentrate in EtOH 50 + TW80 50 + Saline 1150) of the same compound?
**A.** The Appearance was “White precipitate, milky solution”.

**Q.** And the Appearance ([3]; 100 mg/mL concentrate in NMP 50 + TW80 50 + Saline 1150)?
**A.** The Appearance was “Clear and limpid solution”.

**Q.** What about the Appearance ([3]; concentrate in TW80 50 + WFI 50 + Saline 1150) of the same compound?
**A.** The Appearance was “White precipitate, milky solution”.

**Q.** And the Assay content [3, 5]?
**A.** Its Assay content is “substantially unchanged”.

**Q.** And the Purity [3, 5]?
**A.** The Purity was “substantially unchanged”.

**Q.** And the Appearance ([4]; DMA 25 mg/ml concentrate 100 + Saline 2400)?
**A.** Its Appearance is “White insoluble precipitate from the first drop”.

**Q.** And the Appearance ([4]; DMSO 25 mg/ml concentrate 100 + Saline 2400)?
**A.** The Appearance was “White precipitate after addition of 100 μL”.

**Q.** What about the Appearance ([4]; DMSO 50 mg/ml concentrate 100 + Saline 2400) of the same compound?
**A.** The Appearance was “White insoluble precipitate from the first drop”.

**Q.** What about the Appearance ([4]; DMSO 100 mg/ml concentrate 100 + Saline 2400) of the same compound?
**A.** The Appearance was “White insoluble precipitate from the first drop”.

**Q.** What about the Appearance ([4]; NMP 25 mg/ml concentrate 100 + Saline 2400) of the same compound?
**A.** Its Appearance is “Clear and limpid solution”.

**Q.** What about the Appearance ([4]; NMP 50 mg/ml concentrate 100 + Saline 2400) of the same compound?
**A.** Its Appearance is “White insoluble precipitate from the first drop”.

**Q.** What about the Appearance ([4]; NMP 100 mg/ml concentrate 100 + Saline 2400) of the same compound?
**A.** The Appearance was “White insoluble precipitate from the first drop”.
